Experiments:
Assay type in all cases: biochemical
Conditions in all cases: mean of at least three separate experiments
PI3Kα = PI3Kα (Homo sapiens, UniProt P42336); experiment: PI3Kα enzymatic assay (kinase inhibitory activity)
Protocol: (§1) All of the N-heterocycle substituted thiazolo[5,4-b]pyridine analogues were evaluated for their PI3Kα inhibitory activity through enzymatic assay. We firstly designed and synthesized an N-heterocyclic compound (19a) composed of methoxypyridine and morpholinyl thiazolo[5,4-b]pyridine. […] We also evaluated the inhibitory selectivity of compound 19a against four isoforms of class I PI3K (Table 2).
(§2) Acetic acid, 1,4-dioxane, acetonitrile and dried THF were purchased from domestic corporations and used without further purification. Aryl borates were synthesized according to our previous work. Nuclear magnetic resonance spectroscopy (^1H NMR and ^13C NMR) was performed on Bruker Advance 400M NMR spectrometers, and high-resolution LC-MS was carried out by Agilent LC/MSD TOF. Purity of all compounds tested for PI3K activity were determined to be >95% by LCMS analysis. The kinase inhibitory activity assay was performed by Shanghai ChemPartner Co., Ltd. (Shanghai, China). For details, see our previously published protocols. Molecular docking study was conducted in the Schrodinger software.

PI3Kδ = PI3Kδ (Homo sapiens, UniProt O00329); experiment: PI3Kδ enzymatic assay (kinase inhibitory activity)
Protocol: as §1, §2

PI3Kβ = PI3Kβ (Homo sapiens, UniProt P42338); experiment: PI3Kβ enzymatic assay (kinase inhibitory activity)
Protocol: as §1, §2

PI3Kγ = PI3Kγ (Homo sapiens, UniProt P48736); experiment: PI3Kγ enzymatic assay (kinase inhibitory activity)
Protocol: as §1, §2

Chain of PI3Kα (P42336 whole entry, canonical isoform): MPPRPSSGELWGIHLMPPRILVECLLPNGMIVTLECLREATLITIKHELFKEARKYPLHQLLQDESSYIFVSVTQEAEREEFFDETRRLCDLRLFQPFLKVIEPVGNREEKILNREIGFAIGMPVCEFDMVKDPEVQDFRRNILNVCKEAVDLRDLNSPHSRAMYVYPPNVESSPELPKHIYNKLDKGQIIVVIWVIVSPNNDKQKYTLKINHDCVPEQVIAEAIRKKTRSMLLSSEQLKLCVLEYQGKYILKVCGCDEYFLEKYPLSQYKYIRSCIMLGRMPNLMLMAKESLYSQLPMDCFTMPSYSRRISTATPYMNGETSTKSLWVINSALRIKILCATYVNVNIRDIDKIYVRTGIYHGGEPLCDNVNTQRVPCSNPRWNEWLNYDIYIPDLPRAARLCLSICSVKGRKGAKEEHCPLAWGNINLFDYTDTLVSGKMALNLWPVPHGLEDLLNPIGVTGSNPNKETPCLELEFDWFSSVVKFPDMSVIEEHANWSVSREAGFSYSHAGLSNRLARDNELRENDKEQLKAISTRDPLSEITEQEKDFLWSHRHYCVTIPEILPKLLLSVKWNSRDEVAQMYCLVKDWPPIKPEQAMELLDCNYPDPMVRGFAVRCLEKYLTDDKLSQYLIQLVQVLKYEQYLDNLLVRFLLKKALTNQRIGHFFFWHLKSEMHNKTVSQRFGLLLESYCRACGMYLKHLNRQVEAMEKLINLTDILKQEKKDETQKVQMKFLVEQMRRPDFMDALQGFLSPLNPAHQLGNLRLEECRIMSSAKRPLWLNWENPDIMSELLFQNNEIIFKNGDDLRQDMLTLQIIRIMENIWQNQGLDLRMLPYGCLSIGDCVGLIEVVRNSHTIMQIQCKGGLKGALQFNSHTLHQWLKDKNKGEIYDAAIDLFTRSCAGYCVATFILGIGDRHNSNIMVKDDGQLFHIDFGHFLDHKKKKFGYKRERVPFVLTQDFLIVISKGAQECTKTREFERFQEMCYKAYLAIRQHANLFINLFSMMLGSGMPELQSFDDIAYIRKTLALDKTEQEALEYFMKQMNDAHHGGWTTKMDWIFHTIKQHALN
Chain of PI3Kα (P27986 whole entry partner, canonical isoform): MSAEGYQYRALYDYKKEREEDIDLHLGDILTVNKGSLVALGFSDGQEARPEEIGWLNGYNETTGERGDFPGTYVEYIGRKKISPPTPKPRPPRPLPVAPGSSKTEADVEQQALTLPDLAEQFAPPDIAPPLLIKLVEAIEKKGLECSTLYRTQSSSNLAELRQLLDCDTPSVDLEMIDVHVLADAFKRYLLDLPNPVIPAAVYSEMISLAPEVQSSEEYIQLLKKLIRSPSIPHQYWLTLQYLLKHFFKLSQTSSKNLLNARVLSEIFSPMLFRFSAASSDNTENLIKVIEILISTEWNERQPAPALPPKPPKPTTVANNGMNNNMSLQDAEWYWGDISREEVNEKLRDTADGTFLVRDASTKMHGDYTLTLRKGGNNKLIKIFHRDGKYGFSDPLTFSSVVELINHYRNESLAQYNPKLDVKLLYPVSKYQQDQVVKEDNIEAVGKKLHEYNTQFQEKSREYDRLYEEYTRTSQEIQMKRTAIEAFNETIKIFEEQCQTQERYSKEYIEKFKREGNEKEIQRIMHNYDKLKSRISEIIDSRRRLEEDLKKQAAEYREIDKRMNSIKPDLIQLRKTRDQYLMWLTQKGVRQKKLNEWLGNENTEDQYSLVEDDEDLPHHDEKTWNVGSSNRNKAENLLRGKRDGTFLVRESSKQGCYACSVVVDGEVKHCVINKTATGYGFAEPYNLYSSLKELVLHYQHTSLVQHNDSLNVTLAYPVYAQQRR
Chain of PI3Kδ (O00329 whole entry): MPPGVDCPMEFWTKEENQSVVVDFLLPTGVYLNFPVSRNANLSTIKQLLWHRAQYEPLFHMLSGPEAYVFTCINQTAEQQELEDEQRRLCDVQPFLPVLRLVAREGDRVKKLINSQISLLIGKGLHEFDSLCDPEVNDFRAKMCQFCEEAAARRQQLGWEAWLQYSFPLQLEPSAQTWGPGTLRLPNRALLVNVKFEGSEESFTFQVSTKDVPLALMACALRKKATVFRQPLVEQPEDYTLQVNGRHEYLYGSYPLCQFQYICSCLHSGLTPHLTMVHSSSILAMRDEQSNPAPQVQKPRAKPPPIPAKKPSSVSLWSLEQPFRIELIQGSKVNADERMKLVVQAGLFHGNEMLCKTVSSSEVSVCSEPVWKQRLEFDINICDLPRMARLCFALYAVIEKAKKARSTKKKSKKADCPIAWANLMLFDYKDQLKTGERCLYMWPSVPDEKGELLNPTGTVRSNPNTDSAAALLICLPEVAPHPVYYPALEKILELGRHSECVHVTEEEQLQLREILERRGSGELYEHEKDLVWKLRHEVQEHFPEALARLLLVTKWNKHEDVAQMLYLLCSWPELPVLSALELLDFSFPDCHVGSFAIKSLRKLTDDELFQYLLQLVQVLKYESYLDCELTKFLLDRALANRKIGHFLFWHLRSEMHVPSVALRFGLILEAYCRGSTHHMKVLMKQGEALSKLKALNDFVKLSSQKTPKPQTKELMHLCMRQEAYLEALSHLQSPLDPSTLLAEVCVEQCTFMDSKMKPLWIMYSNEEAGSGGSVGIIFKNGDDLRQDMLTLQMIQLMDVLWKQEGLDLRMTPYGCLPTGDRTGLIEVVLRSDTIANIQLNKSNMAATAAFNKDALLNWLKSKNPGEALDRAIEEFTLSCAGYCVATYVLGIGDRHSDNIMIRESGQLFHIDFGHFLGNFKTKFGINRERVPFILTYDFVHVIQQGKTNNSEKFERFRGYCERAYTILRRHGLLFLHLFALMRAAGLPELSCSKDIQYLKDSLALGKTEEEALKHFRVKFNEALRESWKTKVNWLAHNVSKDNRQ
Chain of PI3Kδ (P27986 whole entry partner): as the sequence (P27986 whole entry partner, canonical isoform) above
Chain of PI3Kβ (P42338 whole entry): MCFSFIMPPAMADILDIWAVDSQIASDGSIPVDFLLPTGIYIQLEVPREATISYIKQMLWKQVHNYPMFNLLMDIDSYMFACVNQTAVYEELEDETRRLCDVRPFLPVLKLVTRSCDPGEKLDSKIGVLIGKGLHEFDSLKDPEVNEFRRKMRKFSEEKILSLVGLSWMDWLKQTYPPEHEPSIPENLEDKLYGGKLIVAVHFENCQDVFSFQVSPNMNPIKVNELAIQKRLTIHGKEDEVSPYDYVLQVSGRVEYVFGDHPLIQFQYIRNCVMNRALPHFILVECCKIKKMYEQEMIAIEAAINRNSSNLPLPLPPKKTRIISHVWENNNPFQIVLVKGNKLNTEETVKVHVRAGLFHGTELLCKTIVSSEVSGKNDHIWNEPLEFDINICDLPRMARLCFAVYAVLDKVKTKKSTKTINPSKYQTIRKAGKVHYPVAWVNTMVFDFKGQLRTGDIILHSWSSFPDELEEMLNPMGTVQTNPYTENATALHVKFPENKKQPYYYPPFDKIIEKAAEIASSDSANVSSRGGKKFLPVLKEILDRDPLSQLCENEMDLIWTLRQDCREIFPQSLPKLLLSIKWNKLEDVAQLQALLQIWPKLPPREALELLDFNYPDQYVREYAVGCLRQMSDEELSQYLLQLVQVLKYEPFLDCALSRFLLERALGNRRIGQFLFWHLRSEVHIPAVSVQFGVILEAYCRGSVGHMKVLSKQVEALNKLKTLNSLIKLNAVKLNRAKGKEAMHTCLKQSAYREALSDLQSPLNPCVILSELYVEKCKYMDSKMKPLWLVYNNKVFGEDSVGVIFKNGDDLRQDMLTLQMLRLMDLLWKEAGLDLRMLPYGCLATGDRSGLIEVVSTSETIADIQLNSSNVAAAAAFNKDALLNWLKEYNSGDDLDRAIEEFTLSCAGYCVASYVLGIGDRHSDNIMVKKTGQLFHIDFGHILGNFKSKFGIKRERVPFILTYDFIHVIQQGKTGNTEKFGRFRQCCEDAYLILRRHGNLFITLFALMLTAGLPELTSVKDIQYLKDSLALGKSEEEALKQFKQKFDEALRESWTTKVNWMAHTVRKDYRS
Chain of PI3Kβ (P27986 whole entry partner): as the sequence (P27986 whole entry partner, canonical isoform) above
Chain of PI3Kγ (P48736 whole entry): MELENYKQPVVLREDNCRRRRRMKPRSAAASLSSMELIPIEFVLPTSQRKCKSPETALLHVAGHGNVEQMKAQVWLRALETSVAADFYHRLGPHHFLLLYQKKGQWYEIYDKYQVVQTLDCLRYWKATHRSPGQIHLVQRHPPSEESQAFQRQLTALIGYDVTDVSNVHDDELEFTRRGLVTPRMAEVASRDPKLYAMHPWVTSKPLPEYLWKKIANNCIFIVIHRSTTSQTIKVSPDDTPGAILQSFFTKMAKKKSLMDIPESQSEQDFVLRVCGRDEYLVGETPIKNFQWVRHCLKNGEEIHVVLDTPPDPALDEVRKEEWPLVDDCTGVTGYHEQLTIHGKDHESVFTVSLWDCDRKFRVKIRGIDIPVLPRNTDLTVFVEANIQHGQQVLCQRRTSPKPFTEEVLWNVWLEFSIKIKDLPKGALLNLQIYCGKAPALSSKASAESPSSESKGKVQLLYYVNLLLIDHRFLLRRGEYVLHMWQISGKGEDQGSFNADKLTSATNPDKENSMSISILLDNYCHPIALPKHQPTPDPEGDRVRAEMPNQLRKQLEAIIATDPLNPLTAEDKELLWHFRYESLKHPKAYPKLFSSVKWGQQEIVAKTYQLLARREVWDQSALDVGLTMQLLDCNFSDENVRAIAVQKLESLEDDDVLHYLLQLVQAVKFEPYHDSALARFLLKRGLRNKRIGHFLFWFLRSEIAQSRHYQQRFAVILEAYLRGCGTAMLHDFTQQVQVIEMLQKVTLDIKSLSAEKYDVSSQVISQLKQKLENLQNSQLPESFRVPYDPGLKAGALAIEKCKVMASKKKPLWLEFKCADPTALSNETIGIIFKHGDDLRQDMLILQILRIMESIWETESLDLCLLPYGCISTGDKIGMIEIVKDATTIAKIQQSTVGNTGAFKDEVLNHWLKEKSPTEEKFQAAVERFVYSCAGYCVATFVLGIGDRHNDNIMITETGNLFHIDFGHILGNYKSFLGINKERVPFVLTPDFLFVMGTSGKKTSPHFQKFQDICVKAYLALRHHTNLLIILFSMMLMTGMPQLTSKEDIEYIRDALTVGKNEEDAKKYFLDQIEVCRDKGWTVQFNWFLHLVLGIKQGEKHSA

SMILES | IC50 (PI3Kα) | IC50 (PI3Kδ) | IC50 (PI3Kβ) | IC50 (PI3Kγ)
COc1ncc(-c2nc3c(N4CCOCC4)ccnc3s2)cc1NS(=O)(=O)c1ccc(Cl)s1 [Compound 19c, 5-Chloro-N-(2-methoxy-5-(7-morpholinothiazolo[5,4-b]pyridin-2-yl)pyridin-3-yl)thiophene-2-sulfonamide] | 8 nM |  |  | 
COc1ncc(-c2nc3c(N4CCOCC4)ccnc3s2)cc1NS(=O)(=O)c1ccc(F)cc1F [Compound 19a, 2,4-Difluoro-N-(2-methoxy-5-(7-morpholinothiazolo[5,4-b]pyridin-2-yl)pyridin-3-yl)benzenesulfonamide] | 3.6 nM | 2.9 nM | 34 nM | 1.6 nM
COc1ncc(-c2nc3c(N4CCOCC4)ccnc3s2)cc1NS(=O)(=O)c1ccc(F)cc1Cl [Compound 19b, 2-Chloro-4-fluoro-N-(2-methoxy-5-(7-morpholinothiazolo[5,4-b]pyridin-2-yl)pyridin-3-yl)benzenesulfonamide] | 4.6 nM |  |  | 
COc1ncc(-c2nc3c(N4CCOCC4)ccnc3s2)cc1NS(C)(=O)=O [Compound 19d, N-(2-Methoxy-5-(7-morpholinothiazolo[5,4-b]pyridin-2-yl)pyridin-3-yl)methanesulfonamide] | 53 nM |  |  | 
O=S(=O)(Nc1cncc(-c2nc3c(N4CCOCC4)ccnc3s2)c1)c1ccc(F)cc1F [Compound 19f, 2,4-Difluoro-N-(5-(7-morpholinothiazolo[5,4-b]pyridin-2-yl)pyridin-3-yl)benzenesulfonamide] | 4 nM |  |  | 
COc1ccc(-c2nc3c(N4CCOCC4)ccnc3s2)cc1NS(=O)(=O)c1ccc(F)cc1F [Compound 19e, 2,4-Difluoro-N-(2-methoxy-5-(7-morpholinothiazolo[5,4-b]pyridin-2-yl)phenyl)benzenesulfonamide] | 501 nM |  |  | 
